Results taken from article PMC10671431, “New Derivatives of N-Hydroxybutanamide: Preparation, MMP Inhibition, Cytotoxicity, and Antitumor Activity” (International Journal of Molecular Sciences, 2023).

Experiments:
MMP-9 = target: T1, MMP-9 (Homo sapiens, UniProt P14780); assay: MMP activity assay, fluorogenic substrate (MMP Inhibitor Profiling Kit); format: biochemical
T1 construct: the BML- prefix points to Enzo Life Sciences, own knowledge BML-AK308
Protocol: (§1) Determination of MMP activity. A fluorescently labeled substrate probe containing a fluorescent label and a fluorescence quencher, was utilized for this study. […] Enzyme activity was assessed using the MMP Inhibitor Profiling Kit (Product # BML-AK308, New York, NY, USA) according to the manufacturer’s recommendations. The nonspecific inhibitor NNGH was used as a positive control. The fluorescence of the fluorogenic substrate OmniMMP^TM RED was measured at wavelengths Ex/Em = 545/576 nm using a Spark 10M multimode plate reader (Tecan, Zurich, Switzerland). Reaction rates were expressed in relative fluorescence units (RFUs) per minute. The activity of MMPs in the presence of the studied compounds was determined as follows:Activity, % = (Vinh/Vcont) × 100,(1) where V is the initial reaction rate (RFUs/min) in the presence (Vinh) and absence (Vcont) of the studied compounds.
(§2) All tested compounds were dissolved in DMSO. The final concentration of DMSO in all samples was 0.1%. Control samples were treated with 0.1% DMSO.

MMP-2 = target: T2, MMP-2 (Homo sapiens, UniProt P08253); assay: as above; format: biochemical
T2 construct: the BML- prefix points to Enzo Life Sciences, own knowledge BML-AK308
T2 sequence (P08253 110-446 limits assumed): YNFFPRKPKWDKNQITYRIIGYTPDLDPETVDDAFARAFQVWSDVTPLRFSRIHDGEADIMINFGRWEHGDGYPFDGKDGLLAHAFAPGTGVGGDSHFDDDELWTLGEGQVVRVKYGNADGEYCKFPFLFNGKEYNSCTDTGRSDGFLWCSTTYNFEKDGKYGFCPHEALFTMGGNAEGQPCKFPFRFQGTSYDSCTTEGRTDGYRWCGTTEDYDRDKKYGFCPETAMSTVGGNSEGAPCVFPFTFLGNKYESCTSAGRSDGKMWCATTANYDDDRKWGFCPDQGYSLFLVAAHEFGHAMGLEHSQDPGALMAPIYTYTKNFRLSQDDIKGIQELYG
Protocol: as §1, §2

MMP-14 = target: T3, MMP-14 (Homo sapiens, UniProt P50281); assay: as above; format: biochemical
T3 construct: the BML- prefix points to Enzo Life Sciences, own knowledge BML-AK308
Protocol: as §1, §2

MMP-3 = target: T4, MMP-3 (Homo sapiens, UniProt P08254); assay: as above; format: biochemical
T4 construct: the BML- prefix points to Enzo Life Sciences, own knowledge BML-AK308
T4 sequence (P08254 100-272 limits assumed): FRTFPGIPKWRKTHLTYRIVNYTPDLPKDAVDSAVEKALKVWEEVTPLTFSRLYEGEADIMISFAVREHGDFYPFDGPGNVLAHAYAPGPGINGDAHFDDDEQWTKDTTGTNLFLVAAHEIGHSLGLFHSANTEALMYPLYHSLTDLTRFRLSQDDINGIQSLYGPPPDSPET
Protocol: as §1, §2

FetMSC = assay: Cytotoxicity, MTT test; format: cell-based, human
Protocol: (§3) Cell culture. A-172 (human glioblastoma cells), HepG2 (human hepatocellular carcinoma cells), M-HeLa (human cervical adenocarcinoma cells, M subclone), Vero (African green monkey kidney epithelial cells), and FetMSC (human embryonic mesenchymal stem cells) were purchased from the Russian Collection of Cell Cultures of Vertebrates (Institute of Cytology RAS, St. Petersburg, Russia). The U-251 MG cell line (human glioblastoma-astrocytoma) was purchased from the European Collection of Authenticated Cell Cultures (Salisbury, UK). All cells were grown at 37 °C in an atmosphere of 5% CO2. A-172 and Vero cells were cultured in DMEM medium (PanEco, Moscow, Russia). HepG2, HeLa, and U-251 MG cells were cultured in EMEM medium (PanEco). FetMSC cells were cultured in F12/DMEM medium (PanEco). All incubation media were supplemented with 10% fetal calf serum (BioWest, Nuaillé, France), 50 U/mL penicillin, and […] streptomycin (PanEco). Additionally, media for HeLa, HepG2, and U-251 MG cells were supplemented with 2 mM glutamine (PanEco) and 1% essential amino acids (PanEco), media for A-172 and Vero cells were supplemented with 4 mM glutamine, and the medium for FetMSC cells was supplemented with 3 mM glutamine. The medium for U-251 MG cells was additionally supplemented with 1 mM sodium pyruvate (PanEco).
(§4) Cytotoxicity studies. The cytotoxicity of the compounds was assessed using the MTT test. Cells were seeded into 96-well plates at varying concentrations of 5 × 10^4 cells/mL (A-172, Vero and HeLa), 7 × 10^4 cells/mL (HepG2 and U-251 MG), and 10 × 10^4 cells/mL (FetMSC). The studied compounds were added to the incubation medium 24 h after seeding at concentrations ranging from 7.8 μM to 500 μM. All compounds were dissolved in DMSO and diluted with the incubation medium to their final concentrations just before use. The incubation medium in wells was aspirated and replaced with medium containing the studied compounds. The final concentration of DMSO in all samples was 0.1%. Control samples were treated with 0.1% DMSO. After 72 h of exposure, 3-(4,5-dimethylthiazol-2-yl)-2,5-diphenyl-2H-tetrazolium bromide (MTT) (Dia-M, Moscow, Russia) was added to the incubation medium at a concentration of 0.5 mg/mL. The resulting MTT-formazan crystals were dissolved in DMSO. The optical density was measured at 570 nm with a background wavelength of 620 nm using a Spark 10M plate reader. IC50 values were determined using a median effect analysis from the dose–effect relationships.

A-172 = assay: Cytotoxicity, MTT test; format: cell-based, human; settings: Homo sapiens, A 172, 72 h of exposure
Protocol: as §3, §4

HepG2 = assay: Cytotoxicity, MTT test; format: cell-based, human; settings: Homo sapiens, HepG2, 72 h of exposure
Protocol: as §3, §4

HeLa = assay: Cytotoxicity, MTT test; format: cell-based, human; settings: Homo sapiens, HeLa, 72 h of exposure
Protocol: as §3, §4

[1] = concentration of 1 μM (Figure 3)

T1 sequence (P14780 107-444 limits assumed): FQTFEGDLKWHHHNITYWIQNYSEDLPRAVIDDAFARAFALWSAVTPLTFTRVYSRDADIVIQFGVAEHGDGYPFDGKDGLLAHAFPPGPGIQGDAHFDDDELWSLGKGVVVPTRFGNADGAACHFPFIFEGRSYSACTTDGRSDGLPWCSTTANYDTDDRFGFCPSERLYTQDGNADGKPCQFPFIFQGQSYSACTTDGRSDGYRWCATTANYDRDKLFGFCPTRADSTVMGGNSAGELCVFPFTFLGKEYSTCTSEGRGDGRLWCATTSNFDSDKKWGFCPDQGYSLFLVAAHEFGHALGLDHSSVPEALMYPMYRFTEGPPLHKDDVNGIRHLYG

## O=C(CCC(=O)Nc1ccc(I)cc1)NO [Compound 4, N^1-hydroxy-N^4-(4-iodophenyl)butanediamide]
MMP-9; [1]
  inhibition at 1 µM: ~50%
MMP-9; read-out: MMP-inhibiting activity IC50, MMP-9
  IC50: 1.06 ± 0.01 µM
MMP-2; [1]
  inhibition at 1 µM: ~50%
MMP-2; read-out: MMP-inhibiting activity IC50, MMP-2
  IC50: 1.26 ± 0.01 µM
MMP-14; [1]
  inhibition at 1 µM: ~50%
MMP-14; read-out: MMP-inhibiting activity IC50, MMP-14
  IC50: 1.49 ± 0.01 µM
MMP-3; [1]
  effect on MMP-3 activity: no effect
MMP-3; dose–effect relationship (Figure 4)
  concentration with significant effect on MMP-3 activity: approximately 10 μM
MMP-3; read-out: MMP-inhibiting activity IC50, MMP-3
  IC50: > 10 µM
FetMSC; Homo sapiens, 72 h of exposure, MTT
  IC50: > 500 µM
FetMSC; only at the highest concentration
  toxicity to FetMSC cells: some toxicity
A-172
  IC50: 418 ± 17.4 µM
HepG2
  IC50: 488 ± 23.9 µM
HeLa
  IC50: 297 ± 15.7 µM
